Read-outs that look alike come from different tables or passages of the source.
What was measured:
[1] = test system: proteins conjugated to SUMO2/3 in CACO2 cells; test: Immunoblot quantification of SUMO2/3-conjugated proteins (above 50 kDa) in CACO2 cells; format: cell-based
Experimental: CACO2 and HeLa cells were cultivated in Minimum Essential Medium (MEM) (Eurobio) supplemented with 2 mM L-Glutamine (Invitrogen), 10% Fetal Bovine Serum (FBS, Eurobio), non-essential aminoacids (Sigma), 1 mM sodium pyruvate (Gibco) and a mixture of penicillin (10000 U/mL) and streptomycin (10 mg/mL). […] CACO2 and T84 cells were seeded in wells at a density of 1.1×10^5 cells/cm^2 and 1.7×10^5 cells/cm^2, respectively, the day before incubation with BCFAs or SCFAs.
(§1) Before treatments, cell culture medium was replaced by HBSS (Hanks' Balanced Salt Solution; Sigma). Cells were then treated as indicated in the text and directly lysed with Laemmli buffer. For BCFAs and SCFAs treatments, 100 mM stock solutions in water were first prepared from the corresponding acidic form (e.g. isobutyric acid) or from the sodium salt of the corresponding basic form (e.g. sodium isobutyrate) and then further diluted in cell culture media (HBSS). When needed, the pH of cell culture medium was set using either 0.1 M NaOH or 0.1 M HCl solution. […] For TNFα treatments, CACO2 cells were first incubated with BCFAs or SCFAs for 1 hour and then incubated with 100 ng/mL recombinant human TNFα (PeproTech). For immunoblotting and qRT-PCR analyses, cells were lysed after 30 min or 1h of incubation with TNFα, respectively. For Transepithelial electrical resistance (TEER) measurements, cells were incubated for 24 h with TNFα. Viability of cells incubated with HBSS at various pH or with BCFAs was assessed using the CellTiter-Glo® luminescent cell viability assay (Promega), according to the manufacturer's protocol.
(§2) Cell lysates and protein extracts from intestinal tissues in Laemmli buffer were boiled for 5 min, sonicated and protein content was resolved using SDS-polyacrylamide gel electrophoresis. Proteins were then transferred on PVDF membranes (GE Healthcare) and detected after incubation with specific antibodies using ECL Clarity Western blotting Substrate (BioRad). […] Quantifications of proteins were performed on a ChemiDoc Imaging System (Bio-rad). SUMO2/3-conjugated proteins levels (above 50 kDa), SUMO1-conjugated protein levels (above 50 kDa), and other specific protein levels were normalized either by the level of total proteins above 50 kDa (determined using the TGX-stain free imaging technology; Bio-rad) or by the level of actin in each lysate.

[2] = test system: CACO2 cells; test: Luminol-based ROS detection assay in CACO2 cells; format: cell-based
Experimental: Luminol was dissolved in NaOH 0.1 M to obtain a 50 mM stock solution. A stock solution of 1000 U/mL HRP (HorseRadish Peroxidase) was prepared in parallel in PBS (Phosphate-Buffered Saline). After treatment with BCFAs or SCFAs or incubation in HBSS at pH 5.2, CACO2 and HeLa culture media were collected and centrifugated for 5 min at 13,000×g at room temperature. The pH of these culture media was then buffered to 7.5 to avoid pH-dependent interferences with luminol activity. Luminol (1 mM final concentration) and HRP (4 U/mL) were finally added to each culture media and luminescence was quantified immediately on a luminometer (Tecan).

[3] = test system: IκBα; test: Immunoblot of IκBα levels in TNFα-stimulated CACO2 cells; format: cell-based; conditions: 1 hour pre-incubation with 5 mM, then 30 min 100 ng/mL TNFα
Experimental: as §1, §2

[4] = test system: cullin-1 neddylation in HeLa cells; conditions: HeLa cells (Kumar et al., 2007; Kumar et al., 2009); cited from earlier work
[5] = test system: IEC-6 intestinal epithelial cells; conditions: IEC-6 intestinal epithelial cells (Kumar et al., 2009); cited from earlier work
[6] = test system: HeLa cells; conditions: HeLa cells (Kumar et al., 2009); cited from earlier work
[7] = CACO2 cells, 5h, pH~5.2, 5 mM final concentration

## c1ccc2c(c1)[I+]c1ccccc1-2 [DPI, Diphenyleneiodonium]
[1]; CACO2 cells, 30 min pre-incubation with 5 mM NAC or 10 μM DPI, then 1h 5 mM isobutyric or isovaleric acid
  effect of ROS scavenger preincubation on BCFAs-induced hyperSUMOylation: significantly block

## CC(=O)[O-].[Na+] [sodium acetate]
[1]
  SUMOylation pattern: does not trigger any changes

## CCC(=O)O [propionic acid]
[1]; [7]
  level of SUMO2/3-conjugated proteins: significant increase

## CCCC(=O)O [butyric acid]
[1]; [7]
  level of SUMO2/3-conjugated proteins: significant increase
[2]; 1h of incubation
  ROS production: induce ROS production
[2]; 5h of incubation, compared with 1h
  level of ROS: less important
[3]
  TNFα-triggered degradation of IκBα: block
[4]
  cullin-1 neddylation: trigger the loss of cullin-1 neddylation
[5]
  ROS production: induce ROS
[6]
  ROS production: induce ROS

## CC(=O)O [acetic acid]
[1]
  level of SUMO2/3-conjugated proteins: significant increase
